Measurements as given in patent publication US8476270B2, “Dihydropyrido[4,3-b]pyrazine-3-ones as modulators of toll-like receptors” (Gilead Sciences, Inc., priority 2009, dated 2013).

Each molecule was assayed on human Peripheral Blood Mononuclear Cell (PMBC) (assay: PBMC assay: cytokine (IFN-alpha) stimulation at 24 hours). Settings: 24 hours incubation, IFN-alpha in supernatant (Luminex).
Type: cell-based
Description: PBMC Assay Protocol Assays were conducted to determine cytokine stimulation at 24 hours from human Peripheral Blood Mononuclear Cell (PMBC) using the compounds of the present invention. The assays were run in duplicate, with 8-point, half-log dilution curves. The compounds of the present invention were diluted from 10 mM DMSO solution. Cell supernatants are assayed directly for IFNa and 1:10 dilution for TNFa. The assays were performed in a similar fashion as described in Bioorg. Med. Chem. Lett. 16, 4559, (2006). Specifically, cryo-preserved PBMCs were thawed and seeded 96 well plates with 750,000 cells/well in 190 μL/well cell media. The PBMCs were then incubated for 1 hour at 37° C. at 5% CO2. Then, the compounds of the present invention were added in 10 μL cell media at 8 point, half-log dilution titration. The plates were incubated at 37° C. and 5% CO2 for 24 hours and then spinned at 1200 rpm for 10 min, which was followed by collecting supernatant and storing the same at −80° C. Cytokine secretion was assayed with Luminex and Upstate multi-plex kits, using a Luminex analysis instrument. IFN ECmax value for a compound was the concentration at which the compound stimulated maximum IFN-a production as determined using the assay method above.

Row | Structure (SMILES) | MEC = minimum concentration for induction of IFN-alpha = 3-fold over background
1 | CCCCOc1cc2c([nH]c(=O)c(=O)n2Cc2ccc(-c3cccc(CN4CCCC4)c3)cc2)c(N)n1 [F] | c (c: 10 nM-99 nM)
2 | COCCOc1cc2c(c(N)n1)NC(=O)CN2Cc1ccc(CN2CCCC2)cc1 [C] | a (a: = 1 nM)
3 | CCCCOc1cc2c(c(N)n1)NC(=O)CN2Cc1ccc(CN2CCCC2)cc1 [B] | c (c: 10 nM-99 nM)
4 | CCCCOc1cc2c([nH]c(=O)c(=O)n2Cc2ccc(-c3ccc(CN4CCCC4)cc3)cc2)c(N)n1 [G] | c (c: 10 nM-99 nM)
5 | COCCOc1nc(N)c2c(c1Cl)N(Cc1ccc(CN3CCCC3)cc1)CC(=O)N2 [D] | e (e: = 1000 nM)
6 | CCCCOc1cc2c([nH]c(=O)c(=O)n2Cc2ccc(CN3CCCC3)cc2)c(N)n1 [E] | b (b: 1 nM-9 nM)
7 | CCCCOc1cc2c(c(N)n1)NC(=O)CN2Cc1cccc(CN2CCCC2)c1 [A] | d (d: 100 nM-1000 nM)
